Data from US12459974B2, “Bicyclic peptide ligands specific for Nectin-4” (priority 2018, dated 2025).
“And” between values parts separate entries of the source, which are not always exact repeats. Identical values can stand only once. *1 amine or outer side, *2 acyl side, *3 side chain or, on linkers, in order; H or OH if unused. Where a SMILES comes first, the peptide text is derived from it. Bridges are numbered along the chain shown (N, C = ends). Roman numbers before positions name the chains, in order. [ ]: non-standard residue; d: D form. The star is where a group is joined. ξ: configuration not given here. TATA = O=C(CC[*:1])N1CN(C(=O)CC[*:2])CN(C(=O)CC[*:3])C1; Dolaproine = CO[C@@H]([C@@H]1CCCN1)[C@@H](C)C(=O)O; X1 = CC[C@H](C)C(C(CC(=O)[*:2])OC)N(C)[*:1]; 1Nal = N[C@@H](Cc1cccc2ccccc12)C(=O)O; X3 = O=C(CCCC(=O)[*:2])NCCC(=O)[*:1]; PABC = O=C(OCc1ccc(N[*:1])cc1)[*:2]; Hyp = O=C(O)[C@@H]1C[C@@H](O)CN1; hArg = N=C(N)NCCCC[C@H](N)C(=O)O; Cit = NC(=O)NCCC[C@H](N)C(=O)O; X2 = CC(N*)[C@@H](O)c1ccccc1; ξNMeV = CNC(C(=O)O)C(C)C; ξV = CC(C)C(N)C(=O)O; Sar = CNCC(=O)O

How the values were obtained:
[1] = system: NCI-H292 xenograft; test: Example 1: in vivo efficacy in NCI-H292 xenograft (NSCLC model) in BALB/c nude mice; parameters: species or system Mus Musculus
Method: The major endpoint was to see if the tumor growth could be delayed or mice could be cured. Tumor volume was measured three times weekly in two dimensions using a caliper, and the volume was expressed in mm^3 using the formula: V=0.5 a×b^2 where a and b are the long and short diameters of the tumor, respectively. The tumor size was then used for calculations of T/C value. The T/C value (in percent) is an indication of antitumor effectiveness; T and C are the mean volumes of the treated and control groups, respectively, on a given day. TGI was calculated for each group using the formula: TGI (%)=[1−(Ti−T0)/(Vi−V0)]×100; Ti is the average tumor volume of a treatment group on a given day, T0 is the average tumor volume of the treatment group on the day of treatment start, Vi is the average tumor volume of the vehicle control group on the same day with Ti, and V0 is the average tumor volume of the vehicle group on the day of treatment start.
A one-way ANOVA was performed to compare tumor volume among groups, and when a significant F-statistics (a ratio of treatment variance to the error variance) was obtained, comparisons between groups were carried out with Games-Howell test. All data were analyzed using GraphPad Prism 5.0. P<0.05 was considered to be statistically significant.
The NCI-H292 tumor cells will be maintained in medium supplemented with 10% heat inactivated fetal bovine serum at 37° C. in an atmosphere of 5% CO2 in air. The tumor cells will be routinely subcultured twice weekly. The cells growing in an exponential growth phase will be harvested and counted for tumor inoculation.
Each mouse will be inoculated subcutaneously at the right flank with NCI-H292 tumor cells (10×10^6) in 0.2 ml of PBS for tumor development. The animals will be randomized and treatment will be started when the average tumor volume reaches approximately 158-406 mm^3.

[2] = system: Panc2.13 xenograft; test: Example 3: in vivo efficacy in Panc2.13 xenograft (pancreatic cancer model) in Balb/c nude mice; parameters: species or system Mus Musculus
[3] = 3 mpk biw iv, day 14 (Table 13)

## CC[C@H](C)C(C(CC(=O)N1CCC[C@H]1[C@H](OC)[C@@H](C)C(=O)NC(C)[C@@H](O)c1ccccc1)OC)N(C)C(=O)[C@@H](NC(=O)C(C(C)C)N(C)C(=O)OCc1ccc(NC(=O)[C@H](CCCNC(N)=O)NC(=O)C(NC(=O)CCCC(=O)NCCC(=O)N(C)CC(=O)N(C)CC(=O)N(C)CC(=O)N(C)CC(=O)N(C)CC(=O)N(C)CC(=O)N(C)CC(=O)N(C)CC(=O)N(C)CC(=O)N(C)CC(=O)N[C@H]2CSCCC(=O)N3CN4CN(C3)C(=O)CCSC[C@H](NC(=O)[C@@H](CC(=O)O)NC(=O)[C@H](Cc3cccc5ccccc35)NC(=O)[C@@H]3CCCN3C2=O)C(=O)N[C@@H](CCSC)C(=O)N[C@@H](CCCCNC(=N)N)C(=O)N[C@@H](CC(=O)O)C(=O)N[C@@H](Cc2c[nH]c3ccccc23)C(=O)N[C@@H](CO)C(=O)N[C@@H]([C@@H](C)O)C(=O)N2CCC[C@H]2C(=O)N2C[C@H](O)C[C@H]2C(=O)N[C@@H](Cc2c[nH]c3ccccc23)C(=O)N[C@H](C(N)=O)CSCCC4=O)C(C)C)cc1)C(C)C (stereo partly drawn) [BCY8245, MMAE-PABC-Cit-Val-Glutaryl-BCY8234] (I: [Sar][Sar][Sar][Sar][Sar][Sar][Sar][Sar][Sar][Sar]CP[1Nal][dD]CM[hArg]DWSTP[Hyp]WC-NH2 / II: [ξV][Cit][PABC][ξNMeV]V[X1][Dolaproine]-X2; linker I:11-I:15-I:25 via TATA; linker I:N-II:N via X3)
[1]; 1 mg/kg qw
  antitumor activity (in words): didn't produce significant antitumor activity
[1]; 1/3/5 mpk qw iv, day 0
  Tumor volume: 404 ± 65 mm^3
[1]; 1/3/5 mpk qw iv, day 2
  Tumor volume: 391 ± 42 mm^3
[1]; 1/3/5 mpk qw iv, day 4
  Tumor volume: 542 ± 14 mm^3
[1]; 1/3/5 mpk qw iv, day 7
  Tumor volume: 721 ± 136 mm^3
[1]; 1/3/5 mpk qw iv, day 9
  Tumor volume: 762 ± 115 mm^3
[1]; 1/3/5 mpk qw iv, day 11
  Tumor volume: 607 ± 95 mm^3
[1]; 1/3/5 mpk qw iv, day 14
  Tumor volume: 614 ± 89 mm^3
[1]; 1/3/5 mpk qw iv, day 16
  Tumor volume: 626 ± 93 mm^3
[1]; 1/3/5 mpk qw iv, day 18
  Tumor volume: 611 ± 93 mm^3
[1]; 1/3/5 mpk qw iv, day 21
  T/C: 30.4%
  TGI: 85.7%
  Tumor volume: 654 ± 152 mm^3
[1]; 1/3/5 mpk qw iv, day 23
  Tumor volume: 732 ± 139 mm^3
[1]; 1/3/5 mpk qw iv, day 25
  Tumor volume: 755 ± 132 mm^3
[1]; 1/3/5 mpk qw iv, day 28
  Tumor volume: 713 ± 114 mm^3
[1]; 1/3/5 mpk qw iv, day 30
  Tumor volume: 762 ± 165 mm^3
[1]; 1/3/5 mpk qw iv, day 32
  Tumor volume: 968 ± 290 mm^3
[1]; 1/3/5 mpk qw iv, day 35
  Tumor volume: 1119 ± 216 mm^3
[1]; 3 mpk biw iv, day 0 (Table 9)
  Tumor volume: 162 ± 13 mm^3
[1]; 3 mpk biw iv, day 2 (Table 9)
  Tumor volume: 243 ± 19 mm^3
[1]; 3 mpk biw iv, day 4 (Table 9)
  Tumor volume: 211 ± 12 mm^3
[1]; 3 mpk biw iv, day 7 (Table 9)
  Tumor volume: 101 ± 11 mm^3
[1]; 3 mpk biw iv, day 9 (Table 9)
  Tumor volume: 100 ± 8 mm^3
[1]; 3 mpk biw iv, day 11 (Table 9)
  Tumor volume: 87 ± 7 mm^3
[1]; 3 mpk biw iv, day 14 (Table 9)
  Tumor volume: 65 mm^3 and 65 ± 3 mm^3
[1]; [3]
  T/C: 6.9%
  TGI: 112.2%
[1]; 3 mpk qw iv, day 0 (Table 9)
  Tumor volume: 160 ± 5 mm^3
[1]; 3 mpk qw iv, day 2 (Table 9)
  Tumor volume: 220 ± 11 mm^3
[1]; 3 mpk qw iv, day 4 (Table 9)
  Tumor volume: 266 ± 15 mm^3
[1]; 3 mpk qw iv, day 7 (Table 9)
  Tumor volume: 218 ± 23 mm^3
[1]; 3 mpk qw iv, day 9 (Table 9)
  Tumor volume: 167 ± 10 mm^3
[1]; 3 mpk qw iv, day 11 (Table 9)
  Tumor volume: 161 ± 36 mm^3
[1]; 3 mpk qw iv, day 14 (Table 9)
  Tumor volume: 149 mm^3 and 149 ± 43 mm^3
[1]; 3 mpk qw iv, day 14 (Table 13)
  T/C: 15.8%
  TGI: 101.4%
[1]; 5 mpk qw iv, day 0 (Table 9)
  Tumor volume: 160 ± 9 mm^3
[1]; 5 mpk qw iv, day 2 (Table 9)
  Tumor volume: 176 ± 7 mm^3
[1]; 5 mpk qw iv, day 4 (Table 9)
  Tumor volume: 191 ± 3 mm^3
[1]; 5 mpk qw iv, day 7 (Table 9)
  Tumor volume: 105 ± 8 mm^3
[1]; 5 mpk qw iv, day 9 (Table 9)
  Tumor volume: 82 ± 3 mm^3
[1]; 5 mpk qw iv, day 11 (Table 9)
  Tumor volume: 91 ± 14 mm^3
[1]; 5 mpk qw iv, day 14 (Table 9)
  Tumor volume: 83 mm^3 and 83 ± 8 mm^3
[1]; 5 mpk qw iv, day 14 (Table 13)
  T/C: 8.8%
  TGI: 109.8%
[1]; after increasing the dosage to 3 mg/kg from day 7
  antitumor activity (in words): obvious antitumor activity
[1]; after increasing the dosage to 5 mg/kg on day 21
  efficacy (in words): not further improved
[1]; mouse, in vivo
  anti-tumour activity (in words): good anti-tumour activity
[2]; 3 mg/kg biw, day 14
  TGI: 79.1%
  Tumor volume (TV): 231 mm^3
[2]; 3 mg/kg qw, day 14
  TGI: 69.2%
  Tumor volume (TV): 271 mm^3
[2]; 5 mg/kg qw, day 14
  TGI: 77.5%
  Tumor volume (TV): 238 mm^3
[2]; 3 mpk, biw, iv, day 0 after start of treatment
  Tumor volume: 148 ± 46 mm^3
[2]; 3 mpk, biw, iv, day 2
  Tumor volume: 170 ± 38 mm^3
[2]; 3 mpk, biw, iv, day 4
  Tumor volume: 204 ± 57 mm^3
[2]; 3 mpk, biw, iv, day 7
  Tumor volume: 216 ± 56 mm^3
[2]; 3 mpk, biw, iv, day 9
  Tumor volume: 236 ± 59 mm^3
[2]; 3 mpk, biw, iv, day 11
  Tumor volume: 241 ± 60 mm^3
[2]; 3 mpk, biw, iv, day 14
  Tumor volume: 231 ± 57 mm^3
[2]; 3 mpk, biw, day 14
  T/C: 42.3%
  TGI: 79.1%
[2]; 3 mpk, biw, day 14, Mean ± SEM (Table 19)
  Tumor volume: 231 ± 57 mm^3
[2]; 3 mpk, qw, iv, day 0 after start of treatment
  Tumor volume: 149 ± 34 mm^3
[2]; 3 mpk, qw, iv, day 2
  Tumor volume: 160 ± 33 mm^3
[2]; 3 mpk, qw, iv, day 4
  Tumor volume: 191 ± 39 mm^3
[2]; 3 mpk, qw, iv, day 7
  Tumor volume: 215 ± 53 mm^3
[2]; 3 mpk, qw, iv, day 9
  Tumor volume: 242 ± 62 mm^3
[2]; 3 mpk, qw, iv, day 11
  Tumor volume: 259 ± 59 mm^3
[2]; 3 mpk, qw, iv, day 14
  Tumor volume: 271 ± 54 mm^3
[2]; 3 mpk, qw, day 14
  T/C: 49.6%
  TGI: 69.2%
[2]; 3 mpk, qw, day 14, Mean ± SEM (Table 19)
  Tumor volume: 271 ± 54 mm^3
[2]; 5 mpk, qw, iv, day 0 after start of treatment
  Tumor volume: 149 ± 18 mm^3
[2]; 5 mpk, qw, iv, day 2
  Tumor volume: 180 ± 11 mm^3
